# Patent US9914737B2, “Triazolopyrimidinone or triazolopyridinone derivatives, and use thereof” (ST PHARM CO., LTD., priority 2014, dated 2018)
# Structures can show the parent of a compound that is named as a salt.
# Biological target: T1, tankyrase 1 (Homo sapiens, UniProt O95271)
# T1 construct: purchased Trevigen 4700-096-K
# T1 sequence (O95271 1-1327): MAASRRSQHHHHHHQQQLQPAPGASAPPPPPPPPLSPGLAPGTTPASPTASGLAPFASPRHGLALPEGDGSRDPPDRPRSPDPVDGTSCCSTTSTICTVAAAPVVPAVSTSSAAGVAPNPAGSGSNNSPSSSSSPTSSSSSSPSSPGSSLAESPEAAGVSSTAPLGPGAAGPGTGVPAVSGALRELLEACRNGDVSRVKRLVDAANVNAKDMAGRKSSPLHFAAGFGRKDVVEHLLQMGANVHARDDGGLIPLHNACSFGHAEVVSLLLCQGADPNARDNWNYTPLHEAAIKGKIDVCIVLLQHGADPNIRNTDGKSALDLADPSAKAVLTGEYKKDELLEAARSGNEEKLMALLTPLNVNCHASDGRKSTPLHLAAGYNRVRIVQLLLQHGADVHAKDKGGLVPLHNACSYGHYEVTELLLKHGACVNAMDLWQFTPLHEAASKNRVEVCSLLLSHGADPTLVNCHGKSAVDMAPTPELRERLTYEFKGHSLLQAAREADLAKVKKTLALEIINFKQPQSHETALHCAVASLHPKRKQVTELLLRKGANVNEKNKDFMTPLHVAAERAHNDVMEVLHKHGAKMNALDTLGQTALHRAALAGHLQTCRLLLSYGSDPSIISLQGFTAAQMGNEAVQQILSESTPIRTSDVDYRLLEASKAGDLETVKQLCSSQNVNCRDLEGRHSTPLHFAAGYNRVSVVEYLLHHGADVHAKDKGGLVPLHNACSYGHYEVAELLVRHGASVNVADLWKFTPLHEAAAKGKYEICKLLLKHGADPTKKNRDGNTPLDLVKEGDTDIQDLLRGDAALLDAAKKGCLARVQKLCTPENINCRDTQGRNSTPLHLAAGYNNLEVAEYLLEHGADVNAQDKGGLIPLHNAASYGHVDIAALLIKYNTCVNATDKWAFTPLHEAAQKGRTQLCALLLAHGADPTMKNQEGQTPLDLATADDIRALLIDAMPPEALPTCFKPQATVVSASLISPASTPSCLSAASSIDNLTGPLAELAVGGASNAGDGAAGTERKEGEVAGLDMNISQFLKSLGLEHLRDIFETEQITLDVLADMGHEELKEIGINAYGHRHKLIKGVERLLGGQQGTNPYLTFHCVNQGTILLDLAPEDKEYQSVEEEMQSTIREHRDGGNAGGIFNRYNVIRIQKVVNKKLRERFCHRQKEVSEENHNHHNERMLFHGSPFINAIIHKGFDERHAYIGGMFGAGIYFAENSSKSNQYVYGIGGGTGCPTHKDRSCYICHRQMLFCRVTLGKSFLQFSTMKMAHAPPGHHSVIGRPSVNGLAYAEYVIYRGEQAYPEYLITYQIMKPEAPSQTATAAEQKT
# Experiment: Analysis of activity of tankyrase 1 (Trevigen kit, ELISA absorbance at 450 nm)
# Assay type: biochemical
# Conditions: not given
# Method: Activities of novel compounds synthesized according to Examples 1 to 72 against tankyrase 1 were analyzed using a Trevigen kit (Cat. No. 4700-096-K). Poly PAR histone protein-coated 96-well plate, anti-PAR monoclonal antibody and goat anti-mouse IgG-HRP were used for measurement of absorbance by ELISA method. Specifically, 20× I-PAR assay buffer was diluted to 1× by adding water, and 50 μL of the diluted buffer was added to each well of the 96-well plate followed by reacting at rt for 30 min. Then, the supernatant was completely removed from each well and 10 μL of 1× I-PAR assay buffer and 15 μL of assay substrate were added to each well along with 1 μL of a 50× solution of inhibitors to be tested, which were the compounds obtained in the Examples 1 to 72. 10 mUnits/μL of tankyrase 1 enzyme was diluted 50-fold with 1× I-PAR assay buffer and 25 μL of the diluted enzyme was added to each well and reacted while stirring at rt for 30 min. One without any compound of the present invention was used as a positive control and another containing 1× I-PAR assay buffer with the same volume instead of tankyrase 1 enzyme was used as a negative control. Upon completion of the reaction, 200 μL of PBSX, which was prepared by adding 0.1% triton X-100 to PBS, was added and removed and this washing process was repeated twice. Washing was repeated twice more using PBS in the same manner. 5× antibody diluent was diluted with distilled water to 1× concentration, 50 μL of the diluted goat anti-mouse IgG-HRP to 1/2000 was added to each well and reacted while stirring at rt for 30 min. Washes were carried out twice using PBSX and PBS, respectively. After adding 50 μL of TACS-sapphire to each well of the plate, the plate was blocked from light to react for 10 min to 15 min and the color of the reaction solution turned blue. To stop the reaction, 50 μL of 0.2N HCl was added to turn the solution yellow. Finally, the absorbance of the resulting solution was measured at 450 nm.
row,IC50 [nM],Structure (SMILES)
1,60.9,"CC(C)Oc1cc(F)c(N2CCN(c3nc4c(nnn4C)c(=O)[nH]3)CC2)c(F)c1 [compound 9, 5-(4-(2,6-Difluoro-4-isopropoxyphenyl)piperazin-1-yl)-3-methyl-3H-[1,2,3]triazolo[4,5-d]pyrimidin-7(6H)-one]"

# Same assay, conditions: tankyrase 1 enzyme, Trevigen kit Cat. No. 4700-096-K, 30 min at rt; read-out: TNKS1 (IC50)
row,IC50 [nM],Structure (SMILES)
1,28.6,"Cn1nnc2c(=O)[nH]c(N3CCN(c4c(F)cc(OC(CO)CCl)cc4F)CC3)nc21 (centres unmarked) [compound 16, 5-(4-(4-(1-Chloro-3-hydroxypropan-2-yloxy)-2,6-difluorophenyl)piperazin-1-yl)-3-methyl-3H-[1,2,3]triazolo[4,5-d]pyrimidin-7(6H)-one]"
2,19.1,"Cn1nnc2c(=O)[nH]c(N3CCN(c4c(F)cc(OCCCN5CCCCC5)cc4F)CC3)cc21 [compound 69, 6-(4-(2,6-Difluoro-4-(3-(piperidin-1-yl)propoxy)phenyl)piperazin-1-yl)-1-methyl-1H-[1,2,3]triazolo[4,5-c]pyridin-4(5H)-one]"
3,7.31,"Cn1nnc2c(=O)[nH]c(N3CCN(c4c(F)cc(OCCN5CCC(N)CC5)cc4F)CC3)cc21 [compound 72, 6-(4-(4-(2-(4-Aminopiperidin-1-yl)ethoxy)-2,6-difluorophenyl)piperazin-1-yl)-1-methyl-1H-[1,2,3]triazolo[4,5-c]pyridin-4(5H)-one]"
4,39.6,"Cn1nnc2c(=O)[nH]c(N3CCN(c4c(F)cc(OCC(=O)N5CCCC5)cc4F)CC3)nc21 [compound 36, 5-(4-(2,6-Difluoro-4-(2-oxo-2-(pyrrolidin-1-yl)ethoxy)phenyl)piperazin-1-yl)-3-methyl-3H-[1,2,3]triazolo[4,5-d]pyrimidin-7(6H)-one]"
5,7.98,"Cn1nnc2c(=O)[nH]c(N3CCN(c4c(F)cc(OCCO)cc4F)CC3)cc21 [compound 57, 6-(4-(2,6-Difluoro-4-(2-hydroxyethoxy)phenyl)piperazin-1-yl)-1-methyl-1H[1,2,3]triazolo[4,5-c]pyridin-4(5H)-one]"
6,32,"C[C@@H](N)C(=O)OCCOc1cc(F)c(N2CCN(c3nc4c(nnn4C)c(=O)[nH]3)CC2)c(F)c1 [compound 10, (R)-2-(3,5-difluoro-4-(4-(3-methyl-7-oxo-6,7-dihydro-3H-[1,2,3]triazolo[4,5-d]pyrimidin-5-yl)piperazin-1-yl)phenoxy)ethyl2-aminopropanoate hydrochloride]"
7,80,"Cn1nnc2c(=O)[nH]c(N3CCN(c4c(F)cc(OCCCCCC(=O)O)cc4F)CC3)nc21 [compound 19, 6-(3,5-Difluoro-4-(4-(3-methyl-7-oxo-6,7-dihydro-3H-[1,2,3]triazolo[4,5-d]pyrimidin-5-yl)piperazin-1-yl)phenoxy)hexanoic acid]"
8,83.1,"COCCN(C)Cc1cc(F)c(N2CCN(c3nc4c(nnn4C)c(=O)[nH]3)CC2)c(F)c1 [compound 20, 5-(4-(2,6-Difluoro-4-(((2-methoxyethyl)(methyl)amino)methyl)phenyl)piperazin-1-yl)-3-methyl-3H-[1,2,3]triazolo[4,5-d]pyrimidin-7(6H)-one]"
9,13.4,"C[C@H](N)C(=O)OCCOc1cc(F)c(N2CCN(c3cc4c(nnn4C)c(=O)[nH]3)CC2)c(F)c1 [compound 58, (S)-2-(3,5-difluoro-4-(4-(1-methyl-4-oxo-4,5-dihydro-1H-[1,2,3]triazolo[4,5-c]pyridin-6-yl)piperazin-1-yl)phenoxy)ethyl2-aminopropanoate hydrochloride]"
10,25.8,"Cn1nnc2c(=O)[nH]c(N3CCN(c4c(F)cc(CN5CCOCC5)cc4F)CC3)cc21 [compound 60, 6-(4-(2,6-Difluoro-4-(morpholinomethyl)phenyl)piperazin-1-yl)-1-methyl-1H-[1,2,3]triazolo[4,5-c]pyridin-4(5H)-one]"
11,16.3,"CN(C)CCOc1cc(F)c(N2CCN(c3nc4c(nnn4C)c(=O)[nH]3)CC2)c(F)c1 [compound 6, 5-(4-(4-(2-(Dimethylamino)ethoxy)-2,6-difluorophenyl)piperazin-1-yl)-3-methyl-3H-[1,2,3]triazolo[4,5-d]pyrimidin-7(6H)-one]"
12,29.3,"Cn1nnc2c(=O)[nH]c(N3CCN(c4c(F)cc(OCCN5CCCCC5)cc4F)CC3)cc21 [compound 55, 6-(4-(2,6-Difluoro-4-(2-(piperidin-1-yl)ethoxy)phenyl)piperazin-1-yl)-1-methyl-1H-[1,2,3]triazolo[4,5-c]pyridin-4(5H)-one]"
13,41.5,"CN1CCN(Cc2cc(F)c(N3CCN(c4nc5c(nnn5C)c(=O)[nH]4)CC3)c(F)c2)CC1 [compound 14, 5-(4-(2,6-Difluoro-4-((4-methylpiperazin-1-yl)methyl)phenyl)piperazin-1-yl)-3-methyl-3H-[1,2,3]triazolo[4,5-d]pyrimidin-7(6H)-one]"
